In patent US20260209250A1, “CRYSTAL FORM OF KRAS G12D INHIBITOR AND PREPARATION METHOD THEREFOR” (priority 2022, published 2026):

Tests used:
[1] = Long-term/accelerated stability; type: physicochemical
[2] = Crystal form stability study (influencing factor experiments); type: physicochemical; details: for Physical and chemical properties (conclusion of influencing factor experiments): high temperatures and high humidities for 30 days
Procedure: Samples of the crystal forms A, B, C, I, J, and K of the compound represented by formula (I) were taken, spread in open containers, and left to stand under conditions of light exposure (4500 Lux), high temperatures (40° C. and 60° C.), and high humidities (RH 75% and RH 92.5%) for 30 days to investigate their stability, and the results are shown in Table 16.

[3] = 40° C., 10 days, open container
[4] = 40° C., 30 days, open container
[5] = 60° C., 10 days, open container
[6] = 60° C., 30 days, open container
[7] = 75% RH, 10 days, open container
[8] = 75% RH, 30 days, open container
[9] = 92.5% RH, 5 days, open container
[10] = 92.5% RH, 10 days, open container
[11] = 92.5% RH, 30 days, open container
[12] = light exposure (4500 Lux), 5 days, open container
[13] = light exposure (4500 Lux), 10 days, open container
[14] = light exposure (4500 Lux), 30 days, open container

CCc1c(F)ccc2cc(O)cc(-c3nc4c5c(nc(OC[C@@]67CCCN6C[C@H](F)C7)nc5c3F)N3C[C@H]5CC[C@H](N5)[C@H]3CO4)c12 [Crystal form A, 5-Ethyl-6-fluoro-4-((5aS,6S,9R)-1-fluoro-12-(((2R,7aS)-2-fluorotetrahydro-1H-pyrrolizin-7a(5H)-yl)methoxy)-5a,6,7,8,9,10-hexahydro-5H-4-oxa-3,10a,11,13,14-pentaaza-6,9-methanonaphtho[1,8-ab]heptalen-2-yl)naphthalen-2-ol]
99.3%: Purity % 1 month ([1]; 25° C./60% RH) | Purity % 3 months ([1]; 25° C./60% RH) | Purity % 6 months ([1]; 25° C./60% RH) | Purity % Initial ([1]; 25° C./60% RH) | Purity % 1 month ([1]; 40° C./75% RH) | Purity % Initial ([1]; 40° C./75% RH) | Purity % ([2]; 75% RH, 5 days, open container) | Purity % [2, 7] | Purity % [2, 8] | Purity % [2, 9] | Purity % [2, 11] | Purity % ([2]; Initial, 0 days)
99.2%: Purity % 3 months ([1]; 40° C./75% RH) | Purity % ([2]; 40° C., 5 days, open container) | Purity % [2, 3]
good physical and chemical properties: Physical and chemical properties (conclusion of influencing factor experiments) [2]
95.8%: Purity % [2, 14]
98.7%: Purity % [2, 12]
Off-white solid: Color and state ([2]; 40° C., 5 days, open container) | Color and state [2, 3] | Color and state [2, 4] | Color and state ([2]; 60° C., 5 days, open container) | Color and state [2, 5] | Color and state [2, 6] | Color and state ([2]; 75% RH, 5 days, open container) | Color and state [2, 7] | Color and state [2, 8] | Color and state [2, 9] | Color and state [2, 10] | Color and state [2, 11] | Color and state ([2]; Initial, 0 days) | Color and state [2, 12] | Color and state [2, 13]
99.4%: Purity % [2, 10]
Did not change: Crystal form ([2]; 40° C., 5 days, open container) | Crystal form [2, 3] | Crystal form [2, 4] | Crystal form ([2]; 60° C., 5 days, open container) | Crystal form [2, 5] | Crystal form [2, 6] | Crystal form ([2]; 75% RH, 5 days, open container) | Crystal form [2, 7] | Crystal form [2, 8] | Crystal form [2, 9] | Crystal form [2, 10] | Crystal form [2, 11] | Crystal form [2, 12] | Crystal form [2, 13] | Crystal form [2, 14]
98.5%: Purity % [2, 6] | Purity % [2, 13]
99.1%: Purity % 6 months ([1]; 40° C./75% RH) | Purity % [2, 4] | Purity % ([2]; 60° C., 5 days, open container)
Pale yellow solid: Color and state [2, 14]
99.0%: Purity % [2, 5]

CCc1c(F)ccc2cc(O)cc(-c3nc4c5c(nc(OC[C@@]67CCCN6C[C@H](F)C7)nc5c3F)N3C[C@H]5CC[C@H](N5)[C@H]3CO4)c12 [Crystal form B, 5-Ethyl-6-fluoro-4-((5aS,6S,9R)-1-fluoro-12-(((2R,7aS)-2-fluorotetrahydro-1H-pyrrolizin-7a(5H)-yl)methoxy)-5a,6,7,8,9,10-hexahydro-5H-4-oxa-3,10a,11,13,14-pentaaza-6,9-methanonaphtho[1,8-ab]heptalen-2-yl)naphthalen-2-ol]
Pale yellow solid: Color and state [2, 14]
99.1%: Purity % 6 months ([1]; 40° C./75% RH) | Purity % [2, 6] | Purity % [2, 13]
99.2%: Purity % 3 months ([1]; 40° C./75% RH) | Purity % [2, 4] | Purity % [2, 5]
Did not change: Crystal form ([2]; 40° C., 5 days, open container) | Crystal form [2, 3] | Crystal form [2, 4] | Crystal form ([2]; 60° C., 5 days, open container) | Crystal form [2, 5] | Crystal form [2, 6] | Crystal form ([2]; 75% RH, 5 days, open container) | Crystal form [2, 7] | Crystal form [2, 8] | Crystal form [2, 9] | Crystal form [2, 10] | Crystal form [2, 11] | Crystal form [2, 12] | Crystal form [2, 13] | Crystal form [2, 14]
99.4%: Purity % 1 month ([1]; 25° C./60% RH) | Purity % Initial ([1]; 25° C./60% RH) | Purity % Initial ([1]; 40° C./75% RH) | Purity % [2, 7] | Purity % [2, 9] | Purity % [2, 10] | Purity % [2, 11] | Purity % ([2]; Initial, 0 days)
good physical and chemical properties: Physical and chemical properties (conclusion of influencing factor experiments) [2]
97.6%: Purity % [2, 14]
Off-white solid: Color and state ([2]; 40° C., 5 days, open container) | Color and state [2, 3] | Color and state [2, 4] | Color and state ([2]; 60° C., 5 days, open container) | Color and state [2, 5] | Color and state [2, 6] | Color and state ([2]; 75% RH, 5 days, open container) | Color and state [2, 7] | Color and state [2, 8] | Color and state [2, 9] | Color and state [2, 10] | Color and state [2, 11] | Color and state ([2]; Initial, 0 days) | Color and state [2, 12] | Color and state [2, 13]
99.0%: Purity % [2, 12]
99.3%: Purity % 3 months ([1]; 25° C./60% RH) | Purity % 6 months ([1]; 25° C./60% RH) | Purity % 1 month ([1]; 40° C./75% RH) | Purity % ([2]; 40° C., 5 days, open container) | Purity % [2, 3] | Purity % ([2]; 60° C., 5 days, open container) | Purity % ([2]; 75% RH, 5 days, open container) | Purity % [2, 8]
